# Test results taken from article PMC9416745, “The Effect of 1,2,4-Triazole-3-thiol Derivatives Bearing Hydrazone Moiety on Cancer Cell Migration and Growth of Melanoma, Breast, and Pancreatic Cancer Spheroids” (Pharmaceuticals, 2022).
# Tests used:
# [1] = test system: human malignant melanoma cell line IGR39; experiment: MTT cell viability assay, IGR39; assay type: cell-based
# Procedure: (§1) The effect of synthesized compounds on cell viability was studied using 3-(4,5-dimethylthiazol-2-yl)-2,5-diphenyltetrazolium bromide (MTT; Sigma-Aldrich Co., St Louis, MO, USA) assay, as described elsewhere. Briefly, IGR39, MDA-MB-231, Panc-1, and HF cells were seeded in 96-well plates (Corning) in triplicate at a volume of 100 μL (IGR39, MDA-MB-231 and Panc-1: 4 × 10^3 cells/well; HF: 5 × 10^3 cells/well). After 24 h, cells were treated with 50 μM of tested compounds. After 72 h, the MTT reagent was added and cells were incubated for 4 h. Then the medium was aspirated, and the formed formazan crystals were dissolved in 100 μL DMSO (Sigma-Aldrich Co., St. Louis, MO, USA). The absorbance was measured at 570 and 630 nm using a multi-detection microplate reader. The compound effect on cell viability was calculated using the formula:(1) Relative cell viability (%)=A−A0/ANC−A0 where
# (§2) • A—mean of absorbance of the tested compound, • A0—mean of absorbance of blank (no cells, positive control), and • ANC—mean of absorbance of negative control (only cells, no treatment).
# (§3) The compound serial dilutions from 50 µM to 1.56 µM were made in a medium and added to the cells in triplicates. The EC50 value representing the concentration of a compound causing 50% reduction of cancer cell metabolic activity was calculated using the Hill equation.
# [2] = test system: human triple-negative breast cancer MDA-MB-231; experiment: MTT cell viability assay, MDA-MB-231; assay type: cell-based
# Procedure: as §1, §2, §3
# [3] = test system: Human foreskin fibroblasts (HF) CRL-4001; experiment: MTT cell viability assay, fibroblasts; assay type: cell-based; details: 72 h
# Procedure: as §1, §2, §3
# [4] = test system: IGR39, MDA-MB-231 and Panc-1 cell migration; experiment: 'Wound healing' cell migration assay, stated for all tested cell lines; assay type: cell-based, human; details: 10 µM, compared to the control
# Procedure: (§4) Briefly, melanoma IGR39, human triple-negative breast cancer MDA-MB-231, and pancreatic carcinoma Panc-1 cells were seeded in 24-well plates at a density of 6 × 10^4 cells/well and incubated for 48 h in previously described cell culture medium at 37°C in a humidified atmosphere containing 5% CO2. Then the scratch was made using a 100 µL pipette tip. Cells were washed once with PBS, and the fresh medium containing 10 µM of compounds 4, 7, 8, 10, 14, 17, and 18 was added. Medium containing 0.1% DMSO was used as a negative control. Cells were incubated at 37 °C in a humidified atmosphere containing 5% CO2.
# (§5) The ‘Wounds’ were captured at the intervals of 0 h, 24 h, 48 h and 72 h (only for the Panc-1 cell line) from scratch under the phase contrast microscope at a 4× magnification. The wound area was analysed using the ImageJ program (National Institute of Health, Bethesda, MD, USA).
# [5] = test system: human pancreatic carcinoma cell line Panc-1; experiment: MTT cell viability assay, Panc-1; assay type: cell-based; details: 72 h, serial dilutions 50-1.56 µM, n = 3, read-out: EC50 against Panc-1
# Procedure: as §1, §2, §3
# [6] = test system: MDA-MB-231 cell migration; experiment: 'Wound healing' cell migration assay, MDA-MB-231; assay type: cell-based, human; details: 10 µM, both after 24 h and 48 h of incubation
# Procedure: as §4, §5
# [7] = test system: IGR39, MDA-MB-231 and Panc-1 tumour spheroids; experiment: 3D cell cultures (spheroids), stated for all three spheroid types; assay type: cell-based, human; details: 10 µM, 8 days of incubation
# Procedure: (§6) Cancer cell spheroids were formed using the magnetic 3D Bioprinting method, as described elsewhere. Briefly, melanoma IGR39, triple-negative breast cancer MDA-MB-231 cells, pancreatic cancer Panc-1 cells, and human fibroblasts at 70% confluency in a 6-well plate were incubated with Nanoshuttle (n3D Biosciences, Inc., Houston, TX, USA) for 8 h at 37°C in a humidified atmosphere containing 5% CO2. Then cells were trypsinized, centrifuged, and seeded into an ultra-low attachment 96-well plate in a volume of 100 µL (1.5 × 10^3 cancer cells and 1.5 × 10^3 human fibroblasts/well). The plate was placed on a magnetic drive and incubated for 2 days at 37°C in a humidified atmosphere containing 5% CO2. Then the fresh medium containing 10 µM of the tested compound was added to the wells. Spheroids were captured every two days using the Olympus IX73 inverted microscope (OLYMPUS CORPORATION, Tokyo, Japan). Quantitative analysis of compound anticancer activity in spheroids was performed using ImageJ, version 1.53o (National Institutes of Health, USA) and Microsoft Office Excel 2016 software (Microsoft Corporation, Redmond, WA, USA).
# (§7) On the last day of incubation, 10 µL of WST-1 reagent (Sigma-Aldrich Co, St. Louis, MO, USA) was added to each well with spheroids. After 10 h of incubation, 50 µL of liquid from each well were transferred to the new 96-well plate and the absorbance was measured at 460 and 530 nm using a multi-detection microplate reader. Spheroid cell viability was calculated using a formula provided in Section 3.2.2.
# melanoma IGR39 spheroids = experiment: 3D cell cultures (spheroids), IGR39; assay type: cell-based, human; details: 10 µM, 8 days of incubation
# Procedure: as §6, §7
# [8] = test system: IGR39, MDA-MB-231 and Panc-1 cell lines; experiment: MTT cell viability assay, result stated for all tested cancer cell lines together; assay type: cell-based, human; details: 72 h
# Procedure: as §1, §2, §3
structure (smiles),measurement,setting,value
"Cc1ccc(C=NNC(=O)CSc2nnc(CCNc3ccccc3)n2-c2ccccc2)cc1 [Compound 9, N′-(4-methylbenzylidene)-2-((4-phenyl-5-(2-(phenylamino)ethyl)-4H-1,2,4-triazol-3-yl)thio)acetohydrazide]",melting point,,189 to 190 °C
"CCOC(=O)CSC1NN=C(CCNc2ccccc2)N1c1ccccc1 (centres unmarked) [Compound 2, Ethyl 2-((4-phenyl-3-(2-(phenylamino)ethyl)-4,5-dihydro-1H-1,2,4-triazol-5-yl)thio)acetate]",melting point,,121 to 122 °C
"O=C(CSc1nnc(CCNc2ccccc2)n1-c1ccccc1)NN=C1C(=O)Nc2ccc([N+](=O)[O-])cc21 [Compound 6, N′-(5-nitro-2-oxoindolin-3-ylidene)-2-((4-phenyl-5-(2-(phenylamino)ethyl)-4H-1,2,4-triazol-3-yl)thio)acetohydrazide]",melting point,,274 to 275 °C
"COc1ccc2c(c1)C(=NNC(=O)CSc1nnc(CCNc3ccccc3)n1-c1ccccc1)C(=O)N2 [Compound 5, N′-(5-methoxy-2-oxoindolin-3-ylidene)-2-((4-phenyl-5-(2-(phenylamino)ethyl)-4H-1,2,4-triazol-3-yl)thio)acetohydrazide]",melting point,,238 to 239 °C
"CSc1ccc(C=NNC(=O)CSc2nnc(CCNc3ccccc3)n2-c2ccccc2)cc1 [Compound 19, N′-(4-(methylthio)benzylidene)-2-((4-phenyl-5-(2-(phenylamino)ethyl)-4H-1,2,4-triazol-3-yl)thio)acetohydrazide]",activity against the IGR39 cell line (screening),"[1]; 50 µM, 72 h",least active
same,melting point,,196 to 197 °C
same,activity towards the triple-negative breast cancer cell line (screening),"[2]; 50 µM, 72 h",relatively higher activity
"O=C(CSc1nnc(CCNc2ccccc2)n1-c1ccccc1)NN=Cc1ccncc1 [Compound 11, 2-((4-Phenyl-5-(2-(phenylamino)ethyl)-4H-1,2,4-triazol-3-yl)thio)-N′-(pyridin-4-ylmethylene)acetohydrazide]",melting point,,209 to 210 °C
"CN(C)c1ccc(C=NNC(=O)CSc2nnc(CCNc3ccccc3)n2-c2ccccc2)cc1 [Compound 10, N′-(4-(dimethylamino)benzylidene)-2-((4-phenyl-5-(2-(phenylamino)ethyl)-4H-1,2,4-triazol-3-yl)thio)acetohydrazide]",EC50,"[3]; Homo sapiens, Fibroblast, serial dilutions 50-1.56 µM, n = 3, read-out: EC50 against fibroblasts",61.4 ± 2.8 µM
same,selectivity against the melanoma IGR39 cell line (screening),"[1]; 50 µM, 72 h",moderate selectivity
same,EC50,"[1]; Homo sapiens, IGR-39, 72 h, serial dilutions 50-1.56 µM, n = 3, read-out: EC50 against IGR39",22.3 ± 2.5 µM
same,melting point,,169 to 170 °C
same,effect on cell migration,[4],inhibited all cancer cell migration
same,EC50,[5],26.2 ± 1 µM
same,EC50,"[2]; Homo sapiens, MDA-MB-231, 72 h, serial dilutions 50-1.56 µM, n = 3, read-out: EC50 against MDA-MB-231",9.7 ± 1.6 µM
same,MDA-MB-231 cell migration,[6],migrated slower
"O=C(CSc1nnc(CCNc2ccccc2)n1-c1ccccc1)NN=Cc1cccnc1 [Compound 12, 2-((4-Phenyl-5-(2-(phenylamino)ethyl)-4H-1,2,4-triazol-3-yl)thio)-N′-(pyridin-3-ylmethylene)acetohydrazide]",melting point,,92 to 93 °C
"O=C(CSc1nnc(CCNc2ccccc2)n1-c1ccccc1)NN=C1C(=O)Nc2ccc(OC(F)(F)F)cc21 [Compound 8, N′-(2-oxo-5-(trifluoromethoxy)indolin-3-ylidene)-2-((4-phenyl-5-(2-(phenylamino)ethyl)-4H-1,2,4-triazol-3-yl)thio)acetohydrazide]",cytotoxicity against fibroblasts,[3]; compared with the other selected compounds,lower cytotoxicity against fibroblasts
same,activity against the IGR39 cell line (screening),"[1]; 50 µM, 72 h",most active
same,melting point,,258 to 259 °C
same,EC50,[5],38.5 ± 1.6 µM
"Cn1ccc(C=NNC(=O)CSc2nnc(CCNc3ccccc3)n2-c2ccccc2)n1 [Compound 16, N′-((1-methyl-1H-pyrazol-3-yl)methylene)-2-((4-phenyl-5-(2-(phenylamino)ethyl)-4H-1,2,4-triazol-3-yl)thio)acetohydrazide]",melting point,,62 to 63 °C
"O=C(CSc1nnc(CCNc2ccccc2)n1-c1ccccc1)NN=Cc1ccc(C(=O)O)cc1 [Compound 13, 4-((2-(2-((4-Phenyl-5-(2-(phenylamino)ethyl)-4H-1,2,4-triazol-3-yl)thio)acetyl)hydrazono)methyl)benzoic acid]",melting point,,233 to 234 °C
"O=C(CSc1nnc(CCNc2ccccc2)n1-c1ccccc1)NN=Cc1c[nH]nc1-c1ccccc1 [Compound 15, N′-((3-phenyl-1H-pyrazol-4-yl)methylene)-2-((4-phenyl-5-(2-(phenylamino)ethyl)-4H-1,2,4-triazol-3-yl)thio)acetohydrazide]",melting point,,119 to 120 °C
"O=C(CSc1nnc(CCNc2ccccc2)n1-c1ccccc1)NN=Cc1cc([N+](=O)[O-])ccc1O [Compound 18, N′-(2-hydroxy-5-nitrobenzylidene)-2-((4-phenyl-5-(2-(phenylamino)ethyl)-4H-1,2,4-triazol-3-yl)thio)acetohydrazide]",activity in 3D cell cultures (spheroids),[7],most active
same,melanoma IGR39 spheroid growth,melanoma IGR39 spheroids,mostly inhibited
same,melting point,,219 to 220 °C
same,activity against all tested cancer cell lines (screening),[8]; 50 µM,most active
same,EC50,"[8]; Homo sapiens, range over cancer cell lines, read-out: EC50 values against the tested cancer cell lines (range)",2 to 17 µM
"NNC(=O)CSc1nnc(CCNc2ccccc2)n1-c1ccccc1 [Compound 3, 2-((4-Phenyl-5-(2-(phenylamino)ethyl)-4H-1,2,4-triazol-3-yl)thio)acetohydrazide]",melting point,,112 to 113 °C
"O=C(CSc1nnc(CCNc2ccccc2)n1-c1ccccc1)NN=C1C(=O)Nc2ccc(F)cc21 [Compound 7, N′-(5-fluoro-2-oxoindolin-3-ylidene)-2-((4-phenyl-5-(2-(phenylamino)ethyl)-4H-1,2,4-triazol-3-yl)thio)acetohydrazide]",activity against the IGR39 cell line (screening),"[1]; 50 µM, 72 h",most active
same,melting point,,266 to 267 °C
